How the values were obtained:
U2OS [1] = experiment: Cytotoxicity against human U2OS cells harboring p53-dependent EGFP reporter gene assessed as reduction in cell viability at 5 uM after 48 hrs; format: cell-based
HCT-116 [2] = experiment: Induction of apoptosis in human HCT116 p53+ cells at 5 uM by Annexin V-FITC staining-based flow cytometric analysis relative to Nutlin-3a; format: functional
HCT-116 [3] = experiment: Antiproliferative activity against human HCT116 p53-/- cells assessed as growth inhibition after 24 hrs by EdU/Hoechst 33342 staining-based fluorescence analysis; format: functional; details: HCT-116, 24 h
HCT-116 [4] = experiment: Antiproliferative activity against human HCT116 p53+/+ cells assessed as growth inhibition after 24 hrs by EdU/Hoechst 33342 staining-based fluorescence analysis; format: functional; details: HCT-116, 24 h
U2OS [5] = experiment: Cytotoxicity against human U2OS cells harboring p53-dependent EGFP reporter gene assessed as reduction in cell viability at 30 uM after 48 hrs; format: cell-based

| Structure (SMILES) | Activity (U2OS [1]) | Activity (HCT-116 [2]) [%] | GI50 (HCT-116 [3]) [µM] | GI50 (HCT-116 [4]) [µM] | Activity (U2OS [5]) |
| --- | --- | --- | --- | --- | --- |
| CC(C)Oc1ccc([C@@H]2[C@@H](C(=O)NCc3ccc(-n4ccnc4)cc3)CCC(=O)N2c2ccc(OC3CCCC3)cc2)cc1 (relative stereo) | Toxic | 35.2 | – | – | – |
| CCOc1cccc(CNC(=O)[C@H]2OCC(=O)N(c3ccc(F)c(Cl)c3)[C@@H]2c2cccc(F)c2)c1 (racemic) | Toxic | 1.6 | – | – | – |
| COCCCN(Cc1ccc(N2CCCC2)cc1)C(=O)[C@H]1CC(=O)N(c2cccc(Cl)c2)[C@@H]1c1ccc(Cl)cc1 (relative stereo) | Toxic | 24.1 | – | – | – |
| CC(C)Oc1ccc([C@@H]2[C@@H](C(=O)NCc3ccccc3CN3CCOCC3)CCC(=O)N2c2ccc(Cc3ccncc3)cc2)cc1 (mixture of isomers) | Toxic | 1.6 | – | – | – |
| O=C(NCc1ccc(-n2ccnc2)cc1)[C@H]1OCC(=O)N(c2cccc(Cl)c2)[C@@H]1c1cccc(C(F)(F)F)c1 (racemic) | Toxic | 39.3 | – | – | – |
| O=C(NCc1ccc2c(c1)OCO2)[C@H]1CC(=O)N(c2cccc(Cl)c2)[C@@H]1c1cccc(F)c1 (racemic) | Toxic | 79.5 | 65 | 19 | – |
| CN(C)c1ccc([C@@H]2[C@@H](C(=O)NCc3ccccc3CN3CCCC3=O)OCC(=O)N2c2ccc(Cc3ccncc3)cc2)cc1 (racemic) | Toxic | 0 | – | – | – |
| C=CCOc1ccc([C@@H]2[C@@H](C(=O)NCCc3ccc(OC)c(OC)c3)N(C(=O)c3cccc(F)c3)CC(=O)N2C)cc1OCC (racemic) | Toxic | 0 | – | – | – |
| COc1ccc(C2=N[C@@H](c3ccc(Cl)cc3)[C@@H](c3ccc(Cl)cc3)N2C(=O)N2CCNC(=O)C2)c(OC(C)C)c1 [NUTLIN-3] | – | – | 29 | 9 | Toxic |
| O=C(NCc1ccc(Cl)cc1)[C@H]1OCC(=O)N(c2cccc(Cl)c2)[C@@H]1c1cccc(C(F)(F)F)c1 (relative stereo) | Toxic | 84.6 | 40 | 12 | – |
| COc1ccc(CNC(=O)[C@H]2OCC(=O)N(c3ccc(Cc4ccncc4)cc3)[C@@H]2c2ccc(Cl)cc2)cc1 (mixture of isomers) | Toxic | 6.4 | – | – | – |
| Cc1cccc([C@@H]2[C@@H](C(=O)NCc3cccnc3)OCC(=O)N2c2ccc(F)c(Cl)c2)c1 (racemic) | Toxic | 12.4 | – | – | – |
| O=C(NCc1ccc2c(c1)OCO2)[C@H]1CC(=O)N(c2ccc(F)c(F)c2)[C@@H]1c1ccc(Cl)cc1 (mixture of isomers) | Toxic | 16 | – | – | – |
| O=C(NCc1ccc2c(c1)OCO2)[C@H]1OCC(=O)N(c2cccc(Cl)c2)[C@@H]1c1ccc(Cl)cc1 (racemic) | Toxic | 66.5 | 72 | 20 | – |
| Cc1cccc([C@@H]2[C@@H](C(=O)NCc3cccnc3)OCC(=O)N2c2ccc(F)c(F)c2)c1 (mixture of isomers) | Toxic | 6.7 | – | – | – |
| Cc1cccc([C@@H]2[C@@H](C(=O)NCCc3ccc(Cl)cc3)OCC(=O)N2c2ccc(F)c(Cl)c2)c1 (racemic) | Toxic | 14.3 | – | – | – |
| Cc1ccc(CNC(=O)[C@H]2OCC(=O)N(c3ccc(F)c(Cl)c3)[C@@H]2c2cccc(C)c2)cc1 (racemic) | Toxic | 9.5 | – | – | – |
| O=C(NCc1ccc2c(c1)OCO2)[C@H]1CC(=O)N(c2ccc(F)c(Cl)c2)[C@@H]1c1ccc(Cl)cc1 (racemic) | Toxic | 90.7 | 29 | 8 | – |
| COc1ccc(CNC(=O)[C@H]2CC(=O)N(c3ccc(F)c(Cl)c3)[C@@H]2c2ccc(Cl)cc2)c(OC)c1 (racemic) | Toxic | 75 | 71 | 22 | – |
| CCOc1ccc(CNC(=O)[C@H]2CC(=O)N(c3cccc(Cl)c3)[C@@H]2c2ccc(Cl)cc2)cc1 (racemic) | Toxic | 27.2 | – | – | – |
| Cc1ccc(CNC(=O)[C@H]2OCC(=O)N(c3ccc(F)c(Cl)c3)[C@@H]2c2cccc(F)c2)cc1 (racemic) | Toxic | 20.1 | – | – | – |

| Structure (SMILES) | Activity (U2OS [1]) | Activity (HCT-116 [2]) [%] | GI50 (HCT-116 [3]) [µM] | GI50 (HCT-116 [4]) [µM] | Activity (U2OS [5]) |
| --- | --- | --- | --- | --- | --- |
| O=C(NCc1ccc2c(c1)OCCO2)[C@H]1CC(=O)N(c2ccc(F)c(F)c2)[C@@H]1c1ccc(Cl)cc1 (racemic) | Toxic | 16 | – | – | – |
| COc1ccc(CN(CCCN2CCOCC2)C(=O)[C@H]2OCC(=O)N(c3ccc(Cc4ccncc4)cc3)[C@@H]2c2ccc(Cl)cc2)cc1 (racemic) | Toxic | 1.6 | – | – | – |
| Cc1cccc([C@@H]2[C@@H](C(=O)NCc3ccc(Cl)cc3)OCC(=O)N2c2ccc(F)c(Cl)c2)c1 (racemic) | Toxic | 16.8 | – | – | – |
| Cc1cccc([C@@H]2[C@@H](C(=O)NCc3ccc(F)cc3)OCC(=O)N2c2ccc(F)c(Cl)c2)c1 (racemic) | Toxic | 17 | – | – | – |
| CC(C)[C@@H](CS(=O)(=O)C(C)C)N1C(=O)[C@@](C)(CC(=O)O)C[C@H](c2cccc(Cl)c2)[C@H]1c1ccc(Cl)cc1 [NAVTEMADLIN] | – | 112 | 33 | 7 | – |
| CCOc1cccc(CNC(=O)[C@H]2OCC(=O)N(c3ccccc3)[C@@H]2c2cccc(F)c2)c1 (racemic) | Toxic | 3.2 | – | – | – |
| COc1ccc(CNC(=O)[C@H]2OCC(=O)N(c3cccc(Cl)c3)[C@@H]2c2cccc(F)c2)cc1 (racemic) | Toxic | 0 | – | – | – |
| COCCN(Cc1ccc(N(C)C)cc1)C(=O)[C@H]1CC(=O)N(c2ccc(F)c(F)c2)[C@@H]1c1ccc(Cl)cc1 (racemic) | Toxic | 19.2 | – | – | – |
| CCOc1ccc(CNC(=O)[C@H]2OCC(=O)N(c3ccc(F)c(F)c3)[C@@H]2c2cccc(C)c2)cc1 (mixture of isomers) | Toxic | 8.5 | – | – | – |
| Cc1cccc([C@@H]2[C@@H](C(=O)NCc3ccc(Cl)cc3)OCC(=O)N2c2ccc(F)c(F)c2)c1 (racemic) | Toxic | 7.1 | – | – | – |
| CCOc1cccc(CNC(=O)[C@H]2OCC(=O)N(c3ccc(F)c(F)c3)[C@@H]2c2cccc(C)c2)c1 (mixture of isomers) | Toxic | 10.3 | – | – | – |
| COCCCN(Cc1ccc(N(C)C)cc1)C(=O)[C@H]1OCC(=O)N(c2ccc(Cc3ccncc3)cc2)[C@@H]1c1ccc(Cl)cc1 (racemic) | Toxic | 11.1 | – | – | – |
| Cc1cccc([C@@H]2[C@@H](C(=O)NCc3ccccc3F)OCC(=O)N2c2ccc(F)c(Cl)c2)c1 (racemic) | Toxic | 18.9 | – | – | – |
| COc1cc(CNC(=O)[C@H]2CCC(=O)N(c3ccccc3)[C@@H]2c2ccc(Cl)cc2)ccc1OC(C)C (racemic) | Toxic | 69.1 | 81 | 26 | – |
| COc1ccc(N2C(=O)CN(C(=O)c3ccncc3)[C@H](C(=O)NCc3cccc(C)c3)[C@H]2c2ccc(Cl)cc2)cc1 (racemic) | Toxic | 11.1 | – | – | – |
| O=C(NCc1ccccc1CN1CCCC1=O)[C@H]1CC(=O)N(c2ccc(F)c(Cl)c2)[C@@H]1c1ccc(Cl)cc1 (racemic) | Toxic | 123.9 | 32 | 7 | – |
| CC(C)(C)C[C@@H]1N[C@@H](C(=O)N[C@H]2CC[C@H](O)CC2)[C@H](c2cccc(Cl)c2F)[C@]12C(=O)Nc1cc(Cl)ccc12 [SAR-405838] | – | 115 | 38 | 6 | – |
| Cc1cccc(CNC(=O)[C@@H]2[C@@H](c3ccc(Cl)cc3)N(c3ccc(Cl)cc3)C(=O)CN2C(=O)c2ccncc2)c1 (racemic) | Toxic | 63.4 | 80 | 30 | – |
| COc1ccc(CNC(=O)[C@H]2OCC(=O)N(c3ccc(F)c(Cl)c3)[C@@H]2c2ccc(Cl)cc2)cc1 (racemic) | Toxic | 85.3 | 62 | 18 | – |
| Cc1cccc([C@@H]2[C@@H](C(=O)NCc3ccccc3)OCC(=O)N2c2ccc(F)c(Cl)c2)c1 (racemic) | Toxic | 3.7 | – | – | – |

Source: ChEMBL document CHEMBL4219248, “Design, in silico prioritization and biological profiling of apoptosis-inducing lactams amenable by the Castagnoli-Cushman reaction” (Bioorg Med Chem, 2018)
